Measurements reported in PubChem BioAssay (NCI).
Where “and” joins values, the source holds several entries; their conditions need not be identical. Equal values may be shown once.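 Results reflect a 48-hour exposure of cells in 96-well plates to compound at five concentrations. GI50 = concentration required for 50% inhibition of growth. TGI: concentration producing complete growth inhibition.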

How the values were obtained:
Experiment in all cases: NCI-60 cell line screen, 48 h
[1] = tested on: OVCAR-8 ovarian
[2] = tested on: DMS 273 small cell lung
[3] = tested on: SK-MEL-5 melanoma
[4] = tested on: TK-10 renal
[5] = tested on: M19-MEL melanoma
[6] = tested on: MALME-3M melanoma
[7] = tested on: ACHN renal
[8] = tested on: CAKI-1 renal
[9] = tested on: UACC-257 melanoma
[10] = tested on: NCI-H226 lung

`CCCCC[C@@H]1CCCC2NC(CCCCCO[Si](c3ccccc3)(c3ccccc3)C(C)(C)C)CCC21` (some centres undefined) was tested, and the TGI [1] was 32.7 µM, the TGI [2] was 32.4 µM and the TGI [3] was 35.3 µM. The TGI [4] was 34.8 µM, the TGI [5] was 31.8 µM and the TGI [6] was 36.9 µM. It also gave a TGI [7] of 26.5 µM, a TGI [8] of 29 µM and a TGI [9] of 29 µM. It also gave a TGI [10] of 36.6 µM.

`Cn1c(=O)nc2n(-c3ccc(Br)cc3)c3ccccc3nc-2c1=O` was tested, and the TGI [1] was 18.3 µM, the TGI [2] was 14 µM and the TGI [3] was 4.12 µM. The TGI [4] was 32.8 µM, the TGI [5] was 2.93 µM and the TGI [6] was 12.7 µM. It also gave a TGI [7] of 13.2 µM, a TGI [8] of 33 µM and a TGI [9] of 6.79 µM. For the same compound, the TGI [10] was 28.5 µM.

`O=C1c2ccccc2C(=O)c2c1ccc1conc21` gave a TGI [1] of 4.21 µM, a TGI [2] of 8.17 µM and a TGI [3] of 4.83 µM. For the same compound, the TGI [4] was 15.3 µM, the TGI [5] was 3.09 µM and the TGI [6] was 4.75 µM. For the same compound, the TGI [7] was 3.75 µM, the TGI [8] was 8.93 µM and the TGI [9] was 4.37 µM. For the same compound, the TGI [10] was 14.9 µM.

Work on `O=C(c1ccccc1)c1nc2c(Cl)ccc(Cl)c2cc1C(Br)Br` yielded a TGI [1] of 7.59 µM, a TGI [2] of 3.14 µM and a TGI [3] of 2.7 µM. For the same compound, the TGI [4] was 2.81 µM, the TGI [5] was 6.26 µM and the TGI [6] was 5.66 µM. For the same compound, the TGI [7] was 1.52 µM, the TGI [8] was 3.51 µM and the TGI [9] was 1.54 µM. The TGI [10] was 3.61 µM.

For `COc1ccc2[nH]c3c(C)c4c(c(C)c3c2c1)CN(C)C=C4`, the TGI [1] was 13.6 µM, the TGI [2] was 10.3 µM and the TGI [3] was 6.75 µM. The TGI [4] was 65.8 µM, the TGI [5] was 5.53 µM and the TGI [6] was 3.92 µM. It also gave a TGI [7] of 64 µM, a TGI [8] of 57.5 µM and a TGI [9] of 16.8 µM. The TGI [10] was 1.36 µM.

For `NC(CSC(c1ccccc1)(c1ccccc1)c1ccccc1)C(=O)O` (centres undefined), the GI50 [1] was 1.93 µM and 1.05 µM, the TGI [1] was 51.5 µM and 35.7 µM and > 100 µM and the TGI [2] was 1.55 µM. For the same compound, the GI50 [3] was 0.601 µM and 0.41 µM, the TGI [3] was 51.1 µM and 42.5 µM and the GI50 [4] was 6.22 µM. For the same compound, the TGI [4] was 83.5 µM, the GI50 [5] was 5.07 µM and the TGI [5] was 117 µM. For the same compound, the GI50 [6] was 1.33 µM and 5.62 µM, the TGI [6] was 49.2 µM and 39.2 µM and > 100 µM and the GI50 [7] was 20.2 µM and 9.65 µM. The TGI [7] was 79.5 µM and > 100 µM, the GI50 [8] was 15.2 µM and 7.17 µM and the TGI [8] was 51.6 µM and > 100 µM. The GI50 [9] was 1.18 µM and 0.789 µM, the TGI [9] was 53.8 µM and 94.6 µM and > 100 µM and the GI50 [10] was 22.1 µM. For the same compound, the TGI [10] was 90.1 µM and > 100 µM.
